Where “and” joins values, the source holds several entries; their conditions need not be identical. Equal values may be shown once. Marks after values point to notes of the source that are not given here.
Legend:
HGT-1 cells = assay: Guaifenesin-induced acid (proton) secretion in HGT-1 cells; assay type: cell-based, Human; conditions: for change in proton secretory activity of HGT-1 cells compared to 10 mM guaifenesin alone: 30 μM co-incubated with 10 mM guaifenesin, from 10 min onwards
Source text: Human gastric tumour cell line 1 (HGT-1; Laboisse C. L.; Augeron C.; Couturier-Turpin M. H.; Gespach C.; Cheret A. M.; Potet F., Characterization of a newly established human gastric cancer cell line HGT-1 bearing histamine H2-receptors, Canc. Res., 1982, 42, 1541 to 1548) is a suitable screening tool for detecting the interaction of bitter agents and bitter modulating substances (Liszt, K. I.; Hans, J.; Ley, J. P.; Kock, E.; Somoza, V., Characterization of bitter compounds via modulation of proton secretion in human gastric parietal cells in culture, J. Agric. Food Chem., 2018, 66 (10), 2295-2300.). Therefore, the effect of hesperetin and phyllodulcin on guaifenesin-induced acid secretion in the HGT-1 cell line was determined to predict the modulation of guaifenesin-induced bitterness by hesperetin and phyllodulcin. To this aim, HGT-1 cells were cultured under standard conditions and passaged at ca. 80% confluence. […] HGT-1 cells were pre-loaded with (acetyloxy)methyl-3-(acetyloxy)-10-(dimethylamino)-3′-oxo-spiro[7H-benzo[c]xanthene-7,1′(3H)-isobenzofuran]-ar′-carboxylate and incubated in 130 mM NaCl 130, 4.7 mM KCl, 1.3 mM CaCl2), 1.2 mM MgSO4, 1.2 mM KH2PO4, 11.7 mM glucose, 10 mM HEPES 10, 20 μM 4,4′-Diisothiocyanatostilbene-2,2′-disulfonic acid disodium and 20 μM 5-(N-Ethyl-N-isopropyl)amiloride at pH 7.4. Fluorescence recordings were performed with an excitation wavelength of 488 nm and monitoring the emission wavelengths of 580 nm and 640 nm, respectively, each with a 20 nm bandwidth. […]
The data in Table 1 and Table 2 are presented as mean±SEM derived from 3 biological replicates and 6 to 9 technical replicates. Outliers were identified using the Nalimov test, statistical significance was tested one-way ANOVA with Tukey's range test for multiple comparisons and Bonferroni correction, establishing the threshold for significance at p<0.01. Accordingly, data are marked with *(p<0.007), **(p<0.001) or ***(p<0.0001). Control: untreated cells

[1] = test system: guaifenesin-induced bitterness perception; assay: Sensory panel test of guaifenesin-induced bitterness perception (sip and spit, scale 0 to 100); assay type: in vivo, human; conditions: trained panel n=20 to 30
Method: To verify the effect of hesperetin and phyllodulcin on guaifenesin-induced bitterness perception, an aqueous solution of 1.3 g/l guaifenesin (1) was tested against an aqueous solution containing 1.3 g/l guaifenesin and 100 mg/l hesperetin (2) or 7 mg/l phyllodulcin (3) or 100 mg/l homoeriodictyol as comparison (4). The test was conducted as a randomized comparison test in a trained sensory panel (n=20 to 30) via a sip and spit procedure. The panellists tasted both solutions in a blinded fashion and rated bitterness on a scale of 0 to 100.

guaifenesin bitterness = conditions: 200 ppm (200 mg/l, 0.2 mg/ml) HED against 13 mg/ml guaifenesin; cited from earlier work
[2] = 30 μM flavour compound co-incubated with 10 mM guaifenesin, time-point 0 min
[3] = 30 μM flavour compound co-incubated with 10 mM guaifenesin, time-point 5 min
[4] = 30 μM flavour compound co-incubated with 10 mM guaifenesin, time-point 10 min
[5] = 30 μM flavour compound co-incubated with 10 mM guaifenesin, time-point 15 min
[6] = 30 μM flavour compound co-incubated with 10 mM guaifenesin, time-point 20 min
[7] = 30 μM flavour compound co-incubated with 10 mM guaifenesin, time-point 25 min
[8] = 30 μM flavour compound co-incubated with 10 mM guaifenesin, time-point 30 min
[9] = 100 mg/l (racemic) in aqueous 1.3 g/l guaifenesin versus 1.3 g/l guaifenesin

SMILES | change in proton secretory activity of HGT-1 cells compared to 10 mM guaifenesin alone (HGT-1 cells) | proton secretory activity (log 2 transformed ratio of treated versus untreated cells), mean (HGT-1 cells; [2]) | proton secretory activity (log 2 transformed ratio of treated versus untreated cells), mean (HGT-1 cells; [3]) | proton secretory activity (log 2 transformed ratio of treated versus untreated cells), mean (HGT-1 cells; [4]) | proton secretory activity (log 2 transformed ratio of treated versus untreated cells), mean (HGT-1 cells; [5]) | proton secretory activity (log 2 transformed ratio of treated versus untreated cells), mean (HGT-1 cells; [6]) | proton secretory activity (log 2 transformed ratio of treated versus untreated cells), mean (HGT-1 cells; [7]) | proton secretory activity (log 2 transformed ratio of treated versus untreated cells), mean (HGT-1 cells; [8]) | Modulation versus control (relative difference in bitter ratings) ([1]; 7 mg/l (98 weight %, 95 mol % enantiomeric purity) in aqueous 1.3 g/l guaifenesin versus 1.3 g/l guaifenesin) [%] | proton secretory activity (log 2 transformed ratio of treated versus untreated cells), mean (HGT-1 cells; 10 mM guaifenesin alone, time-point 0 min) | proton secretory activity (log 2 transformed ratio of treated versus untreated cells), mean (HGT-1 cells; 10 mM guaifenesin alone, time-point 5 min) | proton secretory activity (log 2 transformed ratio of treated versus untreated cells), mean (HGT-1 cells; 10 mM guaifenesin alone, time-point 10 min) | proton secretory activity (log 2 transformed ratio of treated versus untreated cells), mean (HGT-1 cells; 10 mM guaifenesin alone, time-point 15 min) | proton secretory activity (log 2 transformed ratio of treated versus untreated cells), mean (HGT-1 cells; 10 mM guaifenesin alone, time-point 20 min) | proton secretory activity (log 2 transformed ratio of treated versus untreated cells), mean (HGT-1 cells; 10 mM guaifenesin alone, time-point 25 min) | proton secretory activity (log 2 transformed ratio of treated versus untreated cells), mean (HGT-1 cells; 10 mM guaifenesin alone, time-point 30 min) | Modulation versus control (relative difference in bitter ratings) [1, 9] [%] | reduction in guaifenesin bitterness (guaifenesin bitterness)
COc1ccc([C@H]2Cc3cccc(O)c3C(=O)O2)cc1O [phyllodulcin, (3S)-/(3R)-8-hydroxy-3-(3-hydroxy-4-methoxy-phenyl)isochroman-1-one] | significant decrease | −0.08165* | 0.0579*** | 0.07294*** | −0.04172 | 0.08512* | −0.1469 | 0.1433*** | −15 | – | – | – | – | – | – | – | – | –
COc1ccccc1OCC(O)CO (stereo not drawn) [guaifenesin, 3-(2-methoxyphenoxy-)1,2-propanediol] | – | – | – | – | – | – | – | – | – | 0.2711 and 0.2596 | 0.2378 and 0.2475 | 0.2801 and 0.187 | 0.2178 and 0.2259 | 0.323 and 0.265 | 0.3953 and 0.1861 | 0.2706 and 0.2473 | – | –
COc1ccc([C@@H]2CC(=O)c3c(O)cc(O)cc3O2)cc1O (racemic) [hesperetin, (2S)-/(2R)-5,7-dihydroxy-2-(3-hydroxy-4-methoxyphenyl)-4-chromanone] | significant decrease | −0.132 | 0.05735*** | −0.04329* | 0.03955*** | 0.002334*** | 0.01577*** | 0.02592*** | – | – | – | – | – | – | – | – | −25 | –
COc1cc([C@@H]2CC(=O)c3c(O)cc(O)cc3O2)ccc1O (racemic) [homoeriodictyol, (2S)-/(2R)-5,7-Dihydroxy-2-(4-hydroxy-3-methoxyphenyl)-4-chromanone, reference compound] | – | – | – | – | – | – | – | – | – | – | – | – | – | – | – | – | −12 | about 40%
